{
  "source": "ChEMBL document CHEMBL3881525",
  "about": "“Analogs of dehydrophenylahistins and their therapeutic use” (2007)",
  "key": {"[1]": {"test_system": "Jurkat", "assay": "Induction of apoptosis in human Jurkat cells assessed as PARP cleavage at 100 nM measured after 10 hrs by Western blotting", "format": "functional, cell-based"}, "[2]": {"assay": "Antifungal activity against Epidermophyton floccosum isolate 2 measured after 48 hrs by broth dilution method", "format": "functional"}, "[3]": {"test_system": "Aspergillus fumigatus", "assay": "Antifungal activity against Aspergillus fumigatus isolate 1 measured after 48 hrs by broth dilution method", "format": "functional", "conditions": "isolate 1, 48 h"}, "[4]": {"test_system": "Trichophyton rubrum", "assay": "Fungicidal activity against Trichophyton rubrum isolate 2 measured after 48 hrs by broth dilution method", "format": "functional", "conditions": "isolate 2, 48 h"}, "[5]": {"assay": "Antiproliferative activity against taxol-sensitive human MES-SA cells […]", "format": "functional, cell-based"}, "[6]": {"test_system": "Jurkat", "assay": "Induction of apoptosis in human Jurkat cells assessed as DNA laddering at 1 nM by gel electrophoresis", "format": "functional, cell-based"}, "[7]": {"assay": "Cytotoxicity against human HT-29 cells assessed as reduction in cell viability measured after 48 hrs by resazurin dye-based fluorometric analysis", "format": "functional", "conditions": "Homo sapiens, HT-29, 48 h"}, "[8]": {"assay": "Antifungal activity against Epidermophyton floccosum isolate 1 measured after 48 hrs by broth dilution method", "format": "functional"}, "[9]": {"assay": "Antiproliferative activity against taxol-resistant human MES-SA/Dx5 cells expressing MDR1 mRNA and P-gp pretreated with p-gp inhibitor cyclosporinA followed by compound addition", "format": "functional, cell-based"}, "[10]": {"assay": "Antifungal activity against Trichophyton mentagrophytes isolate 1 measured after 48 hrs by broth dilution method", "format": "functional"}, "[11]": {"assay": "Antifungal activity against Trichophyton rubrum isolate 2 measured after 48 hrs by broth dilution method", "format": "functional"}, "[12]": {"assay": "Antifungal activity against Candida glabrata measured after 48 hrs by broth dilution method", "format": "functional", "conditions": "Nakaseomyces glabratus"}, "[13]": {"assay": "Antifungal activity against Trichophyton rubrum isolate 1 measured after 48 hrs by broth dilution method", "format": "functional"}, "[14]": {"assay": "Antifungal activity against Trichophyton mentagrophytes isolate 2 measured after 48 hrs by broth dilution method", "format": "functional"}, "[15]": {"assay": "Cytotoxicity against human PC3 cells assessed as reduction in cell viability measured after 48 hrs by resazurin dye-based fluorometric analysis", "format": "functional", "conditions": "PC-3, 48 h"}, "[16]": {"assay": "Cytotoxicity against human HT-29 cells assessed as reduction in cell viability measured after 48 hrs by resazurin dye-based fluorometric analysis relative to control", "format": "functional"}, "[17]": {"assay": "Antiproliferative activity against taxol-resistant human MES-SA/Dx5 cells expressing MDR1 mRNA and P-gp", "format": "functional, cell-based"}, "[18]": {"test_system": "Trichophyton mentagrophytes", "assay": "Fungicidal activity against Trichophyton mentagrophytes isolate 1 measured after 48 hrs by broth dilution method", "format": "functional", "conditions": "isolate 1, 48 h"}, "[19]": {"test_system": "Aspergillus fumigatus", "assay": "Antifungal activity against Aspergillus fumigatus isolate 2 measured after 48 hrs by broth dilution method", "format": "functional", "conditions": "isolate 2, 48 h"}, "[20]": {"assay": "Antiproliferative activity against taxol-sensitive human MES-SA cells pretreated with p-gp inhibitor cyclosporinA followed by compound addition", "format": "functional, cell-based"}, "[21]": {"assay": "Cytotoxicity against mouse P388 cells assessed as reduction in cell viability measured after 48 hrs by resazurin dye-based fluorometric analysis", "format": "functional", "conditions": "P388, 48 h"}, "[22]": {"test_system": "MCF7", "assay": "Antimitotic activity in human MCF7 cells assessed as mitotic index measured after 20 hrs by DAPI-staining based fluorescence microscopic analysis", "format": "functional, cell-based"}, "[23]": {"test_system": "MCF7", "assay": "Antimitotic activity in human MCF7 cells assessed as decrease in microtubule polymer formation measured after 20 hrs by immunofluorescence analysis relative to control", "format": "functional, cell-based"}, "[24]": {"assay": "(§1) Antimitotic activity in human MCF7 cells assessed as bipolar cells with uncompressed chromosomes at mitotic block IC50 measured after 20 hrs by immunofluorescence analysis relative to control", "format": "functional"}, "[25]": {"test_system": "MCF7", "assay": "as §1", "format": "functional"}, "[26]": {"test_system": "MCF7", "assay": "Antimitotic activity in human MCF7 cells assessed as microtubule polymer at twice mitotic block IC50 measured after 20 hrs by immunofluorescence analysis relative to control", "format": "functional, cell-based"}, "[27]": {"test_system": "Nakaseomyces glabratus", "assay": "Fungicidal activity against Candida glabrata measured after 48 hrs by broth dilution method", "format": "functional"}, "[28]": {"assay": "Antitumor activity against human HT-29 cells xenografted in nude mouse assessed as tumor growth inhibition at 100 mg/kg, ip administered thrice weekly relative to control", "format": "functional", "conditions": "HT-29, ip, read-out: TGI"}},
  "note": "Calls of active or inactive are those of the source. The rule behind the calls is not given here.",
  "data": [
    {"molecule": "C=CC(C)(C)c1[nH]cnc1/C=c1\\[nH]c(=O)/c(=C/c2ccccc2)[nH]c1=O", "values": [
      {"measurement": "Activity", "setting": "[1]", "result": "Active"},
      {"measurement": "MIC", "setting": "[2]", "result": "> 16", "unit": "µg/mL"},
      {"measurement": "MIC", "setting": "[3]", "result": "> 16", "unit": "µg/mL"},
      {"measurement": "MFC", "setting": "[4]", "result": "> 16", "unit": "µg/mL"},
      {"measurement": "EC50", "setting": "[5]", "result": 116, "unit": "nM"},
      {"measurement": "Activity", "setting": "[6]", "result": "Active"},
      {"measurement": "EC50", "setting": "[7]", "result": "42.6 to 48", "unit": "nM"},
      {"measurement": "MIC", "setting": "[8]", "result": "> 16", "unit": "µg/mL"},
      {"measurement": "EC50", "setting": "[9]", "result": 88, "unit": "nM"},
      {"measurement": "MIC", "setting": "[10]", "result": 4, "unit": "µg/mL"},
      {"measurement": "MIC", "setting": "[11]", "result": 0.25, "unit": "µg/mL"},
      {"measurement": "MIC", "setting": "[12]", "result": "> 68", "unit": "µg/mL"},
      {"measurement": "MIC", "setting": "[13]", "result": "> 16", "unit": "µg/mL"},
      {"measurement": "MIC", "setting": "[14]", "result": "> 16", "unit": "µg/mL"},
      {"measurement": "EC50", "setting": "[15]", "result": "4.7 to 5.4", "unit": "nM"},
      {"measurement": "inhibition (INH)", "setting": "[16]", "result": 86, "unit": "%"},
      {"measurement": "EC50", "setting": "[17]", "result": 98, "unit": "nM"},
      {"measurement": "MFC", "setting": "[18]", "result": "> 16", "unit": "µg/mL"},
      {"measurement": "MIC", "setting": "[19]", "result": "> 16", "unit": "µg/mL"},
      {"measurement": "EC50", "setting": "[20]", "result": 114, "unit": "nM"}
    ]},
    {"molecule": "NS(=O)(=O)c1ccc(S(=O)(=O)Nc2cccc3c(Cl)c[nH]c23)cc1", "values": [
      {"measurement": "IC50", "setting": "[21]", "result": 0.15, "unit": "µg/mL"}
    ]},
    {"molecule": "COc1cc2c(c(OC)c1OC)-c1ccc(OC)c(=O)cc1[C@@H](NC(C)=O)CC2", "note": "[COLCHICINE]", "values": [
      {"measurement": "inhibition", "setting": "[22]", "result": "Dose-dependent effect"},
      {"measurement": "Activity", "setting": "[23]", "result": "Dose-dependent effect"},
      {"measurement": "Activity", "setting": "[24]", "result": 50, "unit": "%"},
      {"measurement": "Activity", "setting": "[25]", "result": "Active"},
      {"measurement": "MIC", "setting": "[12]", "result": "> 128", "unit": "µg/mL"},
      {"measurement": "Activity", "setting": "[26]", "result": "Active"}
    ]},
    {"molecule": "CCCCNC(=O)n1c(NC(=O)OC)nc2ccccc21", "note": "[BENOMYL]", "values": [
      {"measurement": "MFC", "setting": "[27]", "result": "> 512", "unit": "µg/mL"}
    ]},
    {"molecule": "CCc1c2c(nc3ccc(OC(=O)N4CCC(N5CCCCC5)CC4)cc13)-c1cc3c(c(=O)n1C2)COC(=O)[C@]3(O)CC", "note": "[IRINOTECAN]", "values": [
      {"measurement": "inhibition in vivo at 100 mg/kg", "setting": "[28]", "result": "32.7 to 39", "unit": "%"}
    ]}
  ]
}
